Seven molecules from ChEMBL document CHEMBL1157477, “Cembrane diterpenoids from the taiwanese soft coral Sarcophyton stolidotum” (2008) can be followed below.

What all share (assay type): functional
The test system of assay [1] is HeLa. The assay is described as follows: Cytotoxicity against human HeLa cells at 10 ug/ml by MTT assay. On the technique in general: Tetrazolium dyes change colour on reduction, which living cells bring about.
In assay [2] the test system is WiDr. The assay is described as follows: Cytotoxicity against human WiDr cells at 10 ug/ml by MTT assay.
The test system of assay [3] is Daoy. The assay is described as follows: Cytotoxicity against human Daoy cells.

Values after ≈ are worked out from the molar mass of the structure shown. Active and inactive are the calls of the source. The rule behind the calls is not given here.

In general, inhibition refers to the change of the read-out against control, counted positive when it falls. As to `C/C1=C/CC/C(C)=C/C(=O)CC2=C[C@@H](OC2=O)[C@@H](C(C)C)CC1=O` [SARCOSTOLIDE A], the inhibition at 10 µg/mL is 22.3% in assay [1] and 20% in assay [2]. Besides, the result in assay [3] was inactive.
Taken in the same sequence, the figures for `C/C1=C/C(=O)CC2=C[C@@H](OC2=O)[C@@H](C(C)C)CC(=O)/C(C)=C/CC1` [SARCOSTOLIDE B] were 5.88%, 8.31% and “inactive”.
The corresponding values for `C/C1=C\C(=O)CC2=C[C@@H](OC2=O)[C@@H](C(C)C)CC(=O)/C(C)=C/CC1` [SARCOSTOLIDE C] are 1.65%, 19.4% and “inactive”.
Taken in the same sequence, the figures for `C/C1=C/C(=O)CC2=C[C@@H](OC2=O)[C@H](C(C)C)CC(=O)/C(C)=C/CC1` [SARCOSTOLIDE D] were 11.1%, 29.1% and “inactive”.
For `C/C1=C/C=C/[C@H](C)C(=O)C[C@H](C(C)C)[C@H]2C=C(CC(=O)C1)C(=O)O2` [SARCOSTOLIDE E], the values for the inhibition at 10 µg/mL in assay [1] and in assay [2] were 16.8% and 27.5%, respectively. The EC50 in assay [3] (read-out: ED50 (the source's name)) was 5.5 µg/mL (≈ 16.6 µM).
For `C/C1=C/C/C=C(\C)C(=O)C[C@H](C(C)C)[C@H]2C=C(CC(=O)C1)C(=O)O2` [SARCOSTOLIDE F], the inhibition at 10 µg/mL in assay [1] stood at 7.32%; in assay [2], 29.8%. The outcome in assay [3] was inactive.
The corresponding values for `C/C1=C\CC[C@@H](C)CC(=O)CC2=C[C@@H](OC2=O)[C@@H](C(C)C)CC1=O` [SARCOSTOLIDE G] are 18.4%, 20.1% and “inactive”.
